From patent US11459339B2, “Biaryl derivative, preparation method thereof and pharmaceutical application thereof” (Abbisko Therapeutics Co., Ltd., priority 2018, dated 2022)

Key:
[1] = biological target: interaction between PD-1 and PD-L1 (Homo sapiens (Human), UniProt Q9NZQ7); assay: PD1-PDL1 HTRF binding activity test (Cisbio PD-1/PD-L1 binding assay kit); details: read-out: PD1-PDL1 HTRF Binding Activity IC50
[2] = biological target: interaction between PD-1 and PD-L1 expressed on cell surfaces (Homo sapiens (Human), UniProt Q9NZQ7); assay: Jurkat reporter gene cellular assay (Jurkat/NF-κB-luc/PD1 cells cocultured with Raji-PD-L1 cells, OKT-3 stimulation); format: cell-based; details: NF-κB-luc reporter activation fold, 6 hrs; read-out: Cell Activity EC50
Chain of interaction between PD-1 and PD-L1 expressed on cell surfaces (Q9NZQ7 19-290): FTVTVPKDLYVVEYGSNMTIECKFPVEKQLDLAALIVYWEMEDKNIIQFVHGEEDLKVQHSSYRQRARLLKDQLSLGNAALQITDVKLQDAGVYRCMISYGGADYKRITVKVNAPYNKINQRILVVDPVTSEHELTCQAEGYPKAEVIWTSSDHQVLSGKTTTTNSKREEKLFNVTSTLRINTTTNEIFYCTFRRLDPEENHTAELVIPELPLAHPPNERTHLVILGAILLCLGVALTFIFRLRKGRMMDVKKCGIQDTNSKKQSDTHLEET
Method in brief: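 Jurkat cells stably expressing human PD-1 and NF-κB-luciferase were cocultured with Raji cells stably expressing human PD-L1 under OKT-3 stimulation, with compound present. Luminescence was read after 6 h.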

Chain of interaction between PD-1 and PD-L1 (Q9NZQ7 19-238): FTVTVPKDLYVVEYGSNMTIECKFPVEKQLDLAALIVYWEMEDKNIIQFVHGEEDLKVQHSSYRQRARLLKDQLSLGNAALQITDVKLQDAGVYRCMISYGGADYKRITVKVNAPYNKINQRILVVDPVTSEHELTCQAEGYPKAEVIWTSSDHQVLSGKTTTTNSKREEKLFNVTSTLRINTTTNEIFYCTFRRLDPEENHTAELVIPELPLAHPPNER

IC50 [1]	EC50 [2]	SMILES
22 nM	2410 nM	CCOC(=O)[C@H](C)NCc1cnc(C(=O)Nc2cccc(-c3cccc(NC(=O)c4cc(C5CC5)c(CN[C@@H](C)C(=O)OCC)cn4)c3C)c2C)cc1C1CC1 [Example 123]
1.09 nM	14.7 nM	Cc1c(NC(=O)c2cc(C3CC3)c(CN[C@@H](C)C(=O)O)cn2)cccc1-c1cccc(NC(=O)c2cc(C3CC3)c(CN[C@@H](C)C(=O)O)cn2)c1C [Example 124, (2S,2S)-2,2′-((((((2,2′-dimethyl-[1,-1′-biphenyl]-3,3′-diyl)bis(azanediyl))bis (carbonyl))bis(4-cyclopropylpyridine-6,3-diyl))bis(methylene))bis(azanediyl)) dipropionic acid]
> 2000 nM	> 10000 nM	CCOC(=O)[C@@H](NCc1cnc(C(=O)Nc2cccc(-c3cccc(NC(=O)c4cc(C5CC5)c(CN[C@H](C(=O)OCC)C(C)C)cn4)c3C)c2C)cc1C1CC1)C(C)C [Example 125, diethyl 2,2′-((((((2,2′-dimethyl-[1,1′-biphenyl]-3,3′-diyl)bis(azanediyl))bis(carbonyl))bis(4-cyclopropylpyridine-6,3-diyl))bis(methylene))bis(azanediyl)) (2S,2′S)-bis(3-methylbutanoate)]
1.11 nM	64 nM	Cc1c(NC(=O)c2cc(C3CC3)c(CN[C@H](C(=O)O)C(C)C)cn2)cccc1-c1cccc(NC(=O)c2cc(C3CC3)c(CN[C@H](C(=O)O)C(C)C)cn2)c1C [Example 126, (2S,2S)-2,2-((((((2,2′-dimethyl-[1,1′-biphenyl]-3,3′-diyl)bis(azanediyl))bis (carbonyl))bis(4-cyclopropylpyridine-6,3-diyl))bis(methylene))bis(azanediyl)) bis(3-methylbutanoic acid)]
113 nM	> 10000 nM	CCOC(=O)C1(NCc2cnc(C(=O)Nc3cccc(-c4cccc(NC(=O)c5cc(C6CC6)c(CNC6(C(=O)OCC)CC6)cn5)c4C)c3C)cc2C2CC2)CC1 [Example 127, diethyl 1,1′-((((((2,2′-dimethyl-[1,1′-biphenyl]-3,3′-diyl)bis(azanediyl))bis(carbonyl))bis(4-cyclopropylpyridine-6,3-diyl))bis(methylene))bis(azanediyl)) bis(cyclopropane-l-carboxylate)]
1.32 nM	77.8 nM	Cc1c(NC(=O)c2cc(C3CC3)c(CNC3(C(=O)O)CC3)cn2)cccc1-c1cccc(NC(=O)c2cc(C3CC3)c(CNC3(C(=O)O)CC3)cn2)c1C [Example 128, 1,1′-((((((2,2′-dimethyl-[1,1′-biphenyl]-3,3-diyl)bis(azanediyl))bis(carbonyl))bis (4-cyclopropylpyridine-6,3-diyl))bis (methylene))bis(azanediyl))bis (cyclopropane-1-carboxylic acid)]
102 nM	> 10000 nM	CCOC(=O)CN(C)Cc1cnc(C(=O)Nc2cccc(-c3cccc(NC(=O)c4cc(C5CC5)c(CN(C)CC(=O)OCC)cn4)c3C)c2C)cc1C1CC1 [Example 129]
0.99 nM	600 nM	Cc1c(NC(=O)c2cc(C3CC3)c(CN(C)CC(=O)O)cn2)cccc1-c1cccc(NC(=O)c2cc(C3CC3)c(CN(C)CC(=O)O)cn2)c1C [Example 130, 2,2′-((((((2,2′-dimethyl-[1,1′-biphenyl]-3,3′-diyl)bis(azanediyl))bis (carbonyl))bis(4-cyclopropylpyridine-6,3-diyl))bis(methylene))bis (methylazanediyl))diacetic acid]
21.8 nM	2580 nM	COC(=O)[C@@H]1CCN(Cc2cnc(C(=O)Nc3cccc(-c4cccc(NC(=O)c5cc(C6CC6)c(CN6CC[C@@H](C(=O)OC)C6)cn5)c4C)c3C)cc2C2CC2)C1 [Example 131, dimethyl 1,1′-(((((2,2′-dimethyl-[1,1′-biphenyl]-3,3′-diyl)bis(azanediyl))bis (carbonyl))bis(4-cyclopropylpyridine-6,3-diyl))bis(methylene))(3R,3′R)-bis (pyrrolidine-3-carboxylate)]
0.2 nM	23.1 nM	Cc1c(NC(=O)c2cc(C3CC3)c(CN3CC[C@@H](C(=O)O)C3)cn2)cccc1-c1cccc(NC(=O)c2cc(C3CC3)c(CN3CC[C@@H](C(=O)O)C3)cn2)c1C [Example 132, (3R,3′R)-1,1′-(((((2,2′-dimethyl-[1,1′-biphenyl]-3,3′-diyl)bis(azanediyl))bis (carbonyl))bis(4-cyclopropylpyridine-6,3-diyl))bis(methylene))bis(pyrrolidine-3-carboxylic acid)]
11.8 nM	1900 nM	COC(=O)[C@H]1CCN(Cc2cnc(C(=O)Nc3cccc(-c4cccc(NC(=O)c5cc(C6CC6)c(CN6CC[C@H](C(=O)OC)C6)cn5)c4C)c3C)cc2C2CC2)C1 [Example 133, dimethyl 1,1′-(((((2,2′-dimethyl-[1,1′-biphenyl]-3,3′-diyl)bis(azanediyl))bis (carbonyl))bis(4-cyclopropylpyridine-6,3-diyl))bis(methylene))(3S,3′S)-bis (pyrrolidine-3-carboxylate)]
0.82 nM	21 nM	Cc1c(NC(=O)c2cc(C3CC3)c(CN3CC[C@H](C(=O)O)C3)cn2)cccc1-c1cccc(NC(=O)c2cc(C3CC3)c(CN3CC[C@H](C(=O)O)C3)cn2)c1C [Example 134, (3S,3′S)-1,1′-(((((2,2′-dimethyl-[1,1′-biphenyl]-3,3′-diyl)bis(azanediyl))bis (carbonyl))bis(4-cyclopropylpyridine-6,3-diyl))bis(methylene))bis(pyrrolidine-3-carboxylic acid)]
0.32 nM	27.4 nM	Cc1c(NC(=O)c2cc(C3CC3)c(CNC[C@@H](O)CC(=O)O)cn2)cccc1-c1cccc(NC(=O)c2cc(C3CC3)c(CNC[C@@H](O)CC(=O)O)cn2)c1C [Example 136, (3S,3′S)-4,4′-((((((2,2′-dimethyl-[1,1′-biphenyl]-3,3′-diyl)bis(azanediyl))bis (carbonyl))bis(4-cyclopropylpyridine-6,3-diyl))bis(methylene))bis(azanediyl)) bis(3-hydroxybutanoic acid)]
2.07 nM	108 nM	Cc1c(NC(=O)c2cc(C3CC3)c(CNC[C@@H]3CCC(=O)N3)cn2)cccc1-c1cccc(NC(=O)c2cc(C3CC3)c(CNC[C@@H]3CCC(=O)N3)cn2)c1C [Example 137, N,N′-(2,2′-dimethyl-[1,1′-biplienyl]-3,3′-diyl)bis(4-cyclopropyl-5-(((((S)-5-oxopyrrolidin-2-yl)methyl)amino)methyl)picolinamide)]
5.03 nM	581 nM	Cc1c(NC(=O)c2cc(C3CC3)c(CNCCF)cn2)cccc1-c1cccc(NC(=O)c2cc(C3CC3)c(CNCCF)cn2)c1C [Example 138, N,N′-(2,2′-dimethyl-[1,1′-biphenyl]-3,3′-diyl)bis(4-cyclopropyl-5-(((2-fluoroethyl)amino)methyl)picolinamide)]
120 nM	> 10000 nM	Cc1c(NC(=O)c2cc(C3CC3)c(CNCC(F)F)cn2)cccc1-c1cccc(NC(=O)c2cc(C3CC3)c(CNCC(F)F)cn2)c1C [Example 139, N,N′-(2,2′-dimethyl-[1,1′-biphenyl]-3,3′-diyl)bis(4-cyclopropyl-5-(((2,2-difluoroethyl)amino)methyl)picolinamide)]
